In ChEMBL document CHEMBL1201862, “PubChem BioAssay data set” (2004):
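48-hour exposure; five concentrations; linearly interpolated endpoints. GI50 is the concentration that inhibits growth by half.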 Active and inactive are the calls of the source. Rule as the data show it: active = GI50 up to about 1.1 µM and inactive = higher.

Tests used:
Assay in all cases: growth of human tumour cells (NCI), 48 h
[1] = test system: HCT-15
[2] = test system: HCC 2998
[3] = test system: SK-MEL-2
[4] = test system: NCI-H460
[5] = test system: U-251
[6] = test system: 786-0
[7] = test system: OVCAR-5
[8] = test system: ACHN
[9] = test system: SK-MEL-5
[10] = test system: NCI-H522
[11] = test system: SF-295
[12] = test system: KM12
[13] = test system: HL-60
[14] = test system: CAKI-1
[15] = test system: OVCAR-8
[16] = test system: NCI-H23
[17] = test system: CCRF-CEM
[18] = test system: SF-539
[19] = test system: LOX IMVI

SMILES | GI50 [1] | GI50 [2] | GI50 [3] | GI50 [4] | GI50 [5] | GI50 [6] | GI50 [7] | GI50 [8] | GI50 [9] | GI50 [10] | GI50 [11] | GI50 [12] | GI50 [13] | GI50 [14] | GI50 [15] | GI50 [16] | GI50 [17] | GI50 [18] | GI50 [19]
O=C(c1cc(O)ccc1O)c1ccccc1C(Cl)(Cl)Cl | > 100 µM | > 100 µM (inactive) | > 100 µM (inactive) | > 100 µM (inactive) | > 100 µM (inactive) | > 100 µM (inactive) | > 100 µM (inactive) | > 100 µM (inactive) | 35.6 µM (inactive) | 57.1 µM (inactive) | 55.7 µM (inactive) | > 100 µM (inactive) | 28.6 µM (inactive) | 93.1 µM (inactive) | 80.9 µM (inactive) | 58.2 µM (inactive) | 61.5 µM (inactive) | > 100 µM (inactive) | –
CCCCCCCCCCCCCC(=O)CSCCNC(=O)CCNC(=O)[C@@H](O)C(C)(C)COP(=O)(O)OP(=O)(O)OCC1OC(n2cnc3c(N)ncnc32)C(O)C1OP(=O)(O)O (some centres undefined) | 17.1 µM | 16.5 µM (inactive) | 17.2 µM (inactive) | 25.6 µM (inactive) | 18 µM (inactive) | 15.5 µM (inactive) | 32.4 µM (inactive) | 18.2 µM (inactive) | 18.9 µM (inactive) | 10.6 µM (inactive) | 13.4 µM (inactive) | 14.6 µM (inactive) | 20.5 µM (inactive) | – | 27.4 µM (inactive) | 18.7 µM (inactive) | 24.4 µM (inactive) | 16.2 µM (inactive) | 18.4 µM (inactive)
OCC(O)C(O)C(O)c1nn(-c2ccc(Cl)cc2)c2nc3cc(Cl)c(Cl)cc3nc12 (centres undefined) | – | 60.1 µM (inactive) | 24.8 µM (inactive) | 68.7 µM (inactive) | 57.5 µM (inactive) | 65.6 µM (inactive) | > 100 µM (inactive) | 73.1 µM (inactive) | – | 27.1 µM (inactive) | 67.6 µM (inactive) | > 10 µM (inactive) | > 100 µM (inactive) | > 100 µM (inactive) | 22.5 µM (inactive) | 19.2 µM (inactive) | 52.1 µM (inactive) | 42.8 µM (inactive) | 39.3 µM (inactive)
CCc1cccc(CC)c1NC(=O)C(=O)Cc1nc2ccccc2o1 | > 100 µM | > 100 µM (inactive) | > 100 µM (inactive) | > 100 µM (inactive) | > 100 µM (inactive) | > 100 µM (inactive) | > 100 µM (inactive) | > 100 µM (inactive) | – | > 100 µM (inactive) | > 100 µM (inactive) | > 100 µM (inactive) | > 100 µM (inactive) | > 100 µM (inactive) | > 100 µM (inactive) | > 100 µM (inactive) | > 100 µM (inactive) | > 100 µM (inactive) | > 100 µM (inactive)
COC(=O)C1CC(OC(C)=O)C=C2C(=O)CCC21 (centres undefined) | 15.3 µM | 34.2 µM (inactive) | 29 µM (inactive) | 17.1 µM (inactive) | 28.3 µM (inactive) | 18.5 µM (inactive) | – | 20.2 µM (inactive) | 20.5 µM (inactive) | 1.89 µM (inactive) | – | 16.9 µM (inactive) | 16.1 µM (inactive) | 27 µM (inactive) | 18.5 µM (inactive) | – | 16.8 µM (inactive) | 20.6 µM (inactive) | –
N#CC1(C#N)C(c2ccccc2)C=CC12OCCCO2 (centres undefined) | – | 84.9 µM (inactive) | 72.4 µM (inactive) | 42 µM (inactive) | 45.2 µM (inactive) | 31.9 µM (inactive) | 51.5 µM (inactive) | 42.7 µM (inactive) | 53.8 µM (inactive) | 16.3 µM (inactive) | 76 µM (inactive) | 38.1 µM (inactive) | 23.4 µM (inactive) | 24.5 µM (inactive) | 17.7 µM (inactive) | 31.2 µM (inactive) | 26.9 µM (inactive) | 21.6 µM (inactive) | 40.4 µM (inactive)
